The values below are quoted from earlier work in patent publication US9572848B1, “Composition of matter for sexual dysfunction” (Aemes Research L.L.L.P., priority 2014, dated 2017).

Structures are written as SMILES.

The subject of series [1] is growth hormone (GH) levels. Particulars: oral arginine, 9-gram dose; placebo 2.9 (+/−0.7).
The test system of another series is blood pressure. The note with it: meta-analysis.

For `N=C(N)NCCC[C@H](N)C(=O)O` [L-arginine], the “Mean peak GH level” value in series [1] was 6.4 (+/−1.3) μg/L. In addition, in the series with blood pressure, the “Reduction of DBP, pooled estimate” value was 2.7 mmHg and the “Reduction of SBP, pooled estimate” value is 5.4 mmHg.
